Data from patent US20260062443A1 (ALEXION PHARMACEUTICALS, INC., priority 2022, published 2026).

Molecular target: T1, Human complement C1s enzyme (Homo sapiens, UniProt P09871)
T1 sequence (P09871 438-688 limits assumed): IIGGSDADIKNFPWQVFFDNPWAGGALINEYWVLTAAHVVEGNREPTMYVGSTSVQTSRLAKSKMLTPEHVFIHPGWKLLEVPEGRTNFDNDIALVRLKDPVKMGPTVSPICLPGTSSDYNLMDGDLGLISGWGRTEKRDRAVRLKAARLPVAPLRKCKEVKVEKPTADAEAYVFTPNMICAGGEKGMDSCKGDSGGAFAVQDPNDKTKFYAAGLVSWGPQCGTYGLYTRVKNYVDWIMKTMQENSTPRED
T1 sequence (P09871 16-437 partner limits assumed): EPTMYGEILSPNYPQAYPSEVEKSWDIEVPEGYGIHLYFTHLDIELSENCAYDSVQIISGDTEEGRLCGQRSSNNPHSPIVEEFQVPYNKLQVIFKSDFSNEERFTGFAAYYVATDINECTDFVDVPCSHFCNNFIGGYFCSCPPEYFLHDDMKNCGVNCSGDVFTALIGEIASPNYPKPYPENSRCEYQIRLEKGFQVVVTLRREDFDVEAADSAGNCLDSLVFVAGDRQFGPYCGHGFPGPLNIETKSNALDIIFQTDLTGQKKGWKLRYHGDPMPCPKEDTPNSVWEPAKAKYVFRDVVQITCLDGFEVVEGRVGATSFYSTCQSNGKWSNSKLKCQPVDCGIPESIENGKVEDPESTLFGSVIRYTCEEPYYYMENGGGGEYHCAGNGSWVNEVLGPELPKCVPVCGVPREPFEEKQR
Experiment: Human C1s enzyme assay
Assay type: biochemical
Conditions: human complement C1s enzyme 1.16 nM, substrate Z-L-Lys-SBzl 100 μM, 5 min preincubation; read-out: IC50 (Stars), C1s Inhibiting Activity
Method in brief: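 IC50 from nonlinear regression of reaction rates versus compound concentration, with rates taken from A405 recorded at 30 s intervals over 30 min after adding 100 μM Z-L-Lys-SBzl plus 100 μM DTNB. Enzyme was human C1s purified from serum, 1.16 nM, given 5 min compound preincubation at room temperature, pH 7.5 Tris/1 M NaCl.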

Compound | IC50 [µM]
O=C(NCC(=O)N1C[C@H](OC(F)F)C[C@H]1C(=O)NCc1cc2cnccn2c1)c1cccc(Oc2ccccc2)c1 [Compound 270, (2S,4R)-4-(difluoromethoxy)-1-((3-phenoxybenzoyl)glycyl)-N-(pyrrolo[1,2-a]pyrazin-7-ylmethyl)pyrrolidine-2-carboxamide] | < 0.1
C[C@@]12C[C@@H]1N(C(=O)CNC(=O)c1ccc3c(c1)Oc1ccccc1S3)[C@H](C(=O)NCc1cc3cnccn3c1)C2 [Compound 271, (1S,3S,5S)-5-methyl-2-((phenoxathiine-3-carbonyl)glycyl)-N-(pyrrolo[1,2-a]pyrazin-7-ylmethyl)-2-azabicyclo[3.1.0]hexane-3-carboxamide] | < 0.1
Cc1ccc(Oc2cccc(C(=O)NCC(=O)N3C[C@H](OC(F)F)C[C@H]3C(=O)NCc3cc4cnccc4[nH]3)c2)cc1 [Compound 272] | < 0.1
CC(C)(C)c1ccc(Oc2cccc(C(=O)NCC(=O)N3C[C@H](OC(F)F)C[C@H]3C(=O)NCc3cc4cnccc4[nH]3)c2)cc1 [Compound 273, (2S,4R)-N-((1H-pyrrolo[3,2-c]pyridin-2-yl)methyl)-1-((3-(4-(tert-butyl)phenoxy)benzoyl)glycyl)-4-(difluoromethoxy)pyrrolidine-4-carboxamide] | < 0.1
Cc1cc(F)ccc1Oc1cccc(C(=O)NCC(=O)N2C[C@H](OC(F)F)C[C@H]2C(=O)NCc2cc3cnccc3[nH]2)c1 [Compound 274, (2S,4R)-N-((1H-pyrrolo[3,2-c]pyridin-2-yl)methyl)-4-(difluoromethoxy)-1-((3-(4-fluoro-2-methylphenoxy)benzoyl)glycyl) pyrrolidine-2-carboxamide] | < 0.1
O=C(NCC(=O)N1C[C@H](OC(F)F)C[C@H]1C(=O)NCc1cc2cnccc2[nH]1)c1cccc(Oc2cccs2)c1 [Compound 275, (2S,4R)-N-((1II-pyrrolo[3,2-c]pyridin-2-yl)methyl)-4-(difluoromethoxy)-1-((3-(thiophen-2-yloxy)benzoyl)glycyl)pyrrolidine-2-carboxamide] | < 0.1
O=C(NCC(=O)N1CC2(C[C@H]1C(=O)NCc1cc3ccncn3c1)OCCO2)c1ccc2c(c1)Oc1ccccc1S2 [Compound 276, (S)-7-((phenoxathiine-3-carbonyl)glycyl)-N-(pyrrolo[1,2-c]pyrimidin-6-ylmethyl)-1,4-dioxa-7-azaspiro[4.4]nonane-8-carboxamide] | > 1
C[C@@]12C[C@@H]1N(C(=O)CNC(=O)c1cccc(Oc3ccccc3)c1)[C@H](C(=O)NCc1cc3cnccn3c1)C2 [Compound 277, (1S,3S,5S)-5-methyl-2-((3-phenoxybenzoyl)glycyl)-N-(pyrrolo[1,2-a]pyrazin-7-ylmethyl)-2-azabicyclo[3.1.0]hexane-3-carboxamide] | < 0.1
O=C(NCC(=O)N1C[C@H](OC(F)F)C[C@H]1C(=O)NCc1cc2cnccn2c1)c1cccc(Oc2ccc(F)cc2)c1 [Compound 278, (2S,4R)-4-(difluoromethoxy)-1-((3-(4-fluorophenoxy)benzoyl)glycyl)-N-(pyrrolo[1,2-a]pyrazin-7-ylmethyl)pyrrolidine-2-carboxamide] | < 0.1
C[C@@]12C[C@@H]1N(C(=O)CNC(=O)c1ccc3c(c1)Oc1ccccc1S3)[C@H](C(=O)NCc1ccc3c(c1)COB3O)C2 [Compound 279, (1S,3S,5S)-N-((1-hydroxy-1,3-dihydrobenzo[c][1,2]oxaborol-5-yl)methyl)-5-methyl-2-((phenoxathiine-3-carbonyl)glycyl)-2-azabicyclo[3.1.0]hexane-3-carboxamide] | > 1
O=C(Cc1ccc(Cl)c(Cl)c1)NCC(=O)N1CC2(C[C@H]1C(=O)NCc1cc3cnccc3[nH]1)OCCO2 [Compound 280, (S)-N-((1H-pyrrolo[3,2-c]pyridin-2-yl)methyl)-7-((2-(3,4-dichlorophenyl)acetyl)glycyl)-1,4-dioxa-7-azaspiro[4.4]nonane-8-carboxamide] | 0.1 to 1
Cc1ccc2cc(C(=O)NCC(=O)N3CC4(C[C@H]3C(=O)NCc3cc5cnccc5[nH]3)OCCO4)sc2c1 [Compound 281, (S)-N-((1H-pyrrolo[3,2-c]pyridin-2-yl)methyl)-7-((6-methylbenzo[b]thiophene-2-carbonyl)glycyl)-1,4-dioxa-7-azaspiro[4.4]nonane-8-carboxamide] | 0.1 to 1
O=C(NCC(=O)N1C[C@H](OC(F)F)C[C@H]1C(=O)NCc1ccc2ocnc2c1)c1ccc2c(c1)Oc1ccccc1S2 [Compound 282, (2S,4R)-N-(benzo[d]oxazol-5-ylmethyl)-4-(difluoromethoxy)-1-((phenoxathiine-3-carbonyl)glycyl)pyrrolidine-2-carboxamide] | > 1
C[C@@H](NC(=O)[C@@H]1C[C@@H](OC(F)F)CN1C(=O)CNC(=O)c1cnc2c(c1)Oc1ccccc1S2)c1cc2cnccc2[nH]1 [Compound 283, N-[2-[(2S,4R)-4-(difluoromethoxy)-2-[[(1R)-1-(1H-pyrrolo[3,2-c]pyridin-2-yl)ethyl]carbamoyl]pyrrolidin-1-yl]-2-oxo-ethyl]-[1,4]benzoxathiino[3,2-b]pyridine-3-carboxamide] | < 0.1
CO[C@@H]1CCN(C(=O)CNC(=O)c2ccc3c(c2)Oc2ccccc2S3)[C@@H]1C(=O)NCc1cc2cnccc2[nH]1 [Compound 285] | > 1
Cc1ccc2c(c1)Sc1ccc(C(=O)NCC(=O)N3C[C@H](OC(F)F)C[C@H]3C(=O)N[C@H](C)c3cc4cnccc4[nH]3)cc1O2 [Compound 286, (2S,4R)-N-((R)-1-(1H-pyrrolo[3,2-c]pyridin-2-yl)ethyl)-4-(difluoromethoxy)-1-((8-methylphenoxathiine-3-carbonyl)glycyl)pyrrolidine-2-carboxamide] | < 0.1
O=C(NCC(=O)N1CC2(C[C@H]1C(=O)NCc1cc3cnccc3[nH]1)OCCO2)c1ccc(Oc2ccc(Cl)c(Cl)c2)o1 [Compound 287, (S)-N-((1H-pyrrolo[3,2-c]pyridin-2-yl)methyl)-7-((5-(3,4-dichlorophenoxy)furan-2-carbonyl)glycyl)-1,4-dioxa-7-azaspiro[4.4]nonane-8-carboxamide] | < 0.1
C[C@@H](NC(=O)[C@@H]1CC(COCCCCN)CN1C(=O)CNC(=O)c1ccc2c(c1)Oc1ccccc1S2)c1cc2cnccc2[nH]1 (stereo partly drawn) [Compound 288, (2S)-N-((R)-1-(1H-pyrrolo[3,2-c]pyridin-2-yl)ethyl)-4-((4-aminobutoxy)methyl)-1-((phenoxathiine-3-carbonyl)glycyl)pyrrolidine-2-carboxamide] | < 0.1
C[C@@H](NC(=O)C1CSCN1C(=O)CNC(=O)c1ccc2c(c1)Oc1ccccc1S2)c1cc2cnccc2[nH]1 (stereo partly drawn) [Compound 289, N-((R)-1-(1H-pyrrolo[3,2-c]pyridin-2-yl)ethyl)-3-((phenoxathiine-3-carbonyl)glycyl)thiazolidine-4-carboxamide] | < 0.1
C[C@@]12C[C@@H]1N(C(=O)CNC(=O)c1ccc3c(c1)Oc1ccccc1S3)[C@H](C(=O)NCc1ccc3c(c1)B(O)OC3)C2 [Compound 290, (1S,3S,5S)-N-((1-hydroxy-1,3-dihydrobenzo[c][1,2]oxaborol-6-yl)methyl)-5-methyl-2-((phenoxathiine-3-carbonyl)glycyl)-2-azabicyclo[3.1.0]hexane-3-carboxamide] | > 1
C[C@@]12C[C@@H]1N(C(=O)CNC(=O)c1ccc3c(c1)Oc1ccccc1S3)[C@H](C(=O)NCc1cc3cc(B(O)O)ccc3[nH]1)C2 [Compound 291, (2-(((1S,3S,5S)-5-methyl-2-((phenoxathiine-3-carbonyl)glycyl)-2-azabicyclo[3.1.0]hexane-3-carboxamido)methyl)-1H-indol-5-yl)boronic acid] | > 1
Cc1ccc(Oc2cccc(C(=O)NCC(=O)N3C[C@H](OC(F)F)C[C@H]3C(=O)NCc3cc4cnccc4[nH]3)c2)c(Cl)c1 [Compound 292, (2S,4R)-N-((1H-pyrrolo[3,2-c]pyridin-2-yl)methyl)-1-((3-(2-chloro-4-methylphenoxy)benzoyl)glycyl)-4-(difluoromethoxy)pyrrolidine-2-carboxamide] | < 0.1
CCc1ccc(Oc2cccc(C(=O)NCC(=O)N3C[C@H](OC(F)F)C[C@H]3C(=O)NCc3cc4cnccc4[nH]3)c2)cc1 [Compound 293, (2S,4R)-N-((1H-pyrrolo[3,2-c]pyridin-2-yl)methyl)-4-(difluoromethoxy)-1-((3-(4-ethylphenoxy)benzoyl)glycyl) pyrrolidine-2-carboxamide] | < 0.1
O=C(NCC(=O)N1C[C@H](OC(F)F)C[C@H]1C(=O)NCc1cc2cnccc2[nH]1)c1cccc(Oc2ccc(C3CC3)cc2)c1 [Compound 294, (2S,4R)-N-((1H-pyrrolo[3,2-c]pyridin-2-yl)methyl)-1-((3-(4-cyclopropylphenoxy)benzoyl)glycyl)-4-(difluoromethoxy)pyrrolidine-2-carboxamide] | < 0.1
